Earlier results as cited in US20090004360A1, “Taste Potentiator Compositions in Oral Delivery Systems” (CADBURY ADAMS USA LLC, priority 2007, published 2009).
Peptide text beside a SMILES is read from it.

Legend:
[1] = not given; remark: listed apart in the source

SMILES: O=C(O)c1cccc(O)c1 [Example 3-HB, 3-hydroxybenzoic acid]
- effect on sweetness of sucrose, aspartame and saccharin (pH 2.0 to 5.5, European Patent No. 0132444 and U.S. Pat. No. 4,627,987): enhance sweetness

SMILES: COC(=O)[C@H](Cc1ccccc1)NC(=O)[C@@H](N)CC(=O)O [aspartame, L-aspartyl-L-phenylalanine methyl ester] (HELM PEPTIDE1{D.F.[CO[*:1]]}$$$$V2.0)
- sweetness relative to sucrose ([1]; recognized value, 0.05 g in 100 ml isosweet to 10 g sucrose in 100 ml): 200 times

SMILES: O=C(O)c1ccc(O)cc1O [2,4-DHB, 2,4-Dihydroxybenzoic acid]
- effect on sweetness of a sucrose solution (0.2% added to a 5% sucrose solution, Canadian Patent No. 1208966): increase in sweetness
- effect on the sweetness intensity of both sucralose and aspartame (FIGS. 1 and 2 and Tables 1 and 2 of U.S. Pat. No. 6,461,658): slightly inhibitory effect
- effect on sweetness of aspartame (used with aspartame, WO99/15032): increase sweetness synergistically
- length of time during which sucralose sweetness is perceived (with sucralose, U.S. Pat. No. 6,461,658): significantly reducing the length of time

SMILES: OCC(O)CO [Glycerin]
- sweetness relative to cane sugar ([1]; in vivo): about 60%
